Data on eleven compounds can be found in patent publication US4027039A (priority 1975, dated 1977).

Structures are written as SMILES. Structures can show the parent of a compound that is named as a salt.

The test system of this data set is Influenza, Ann Arbor virus. Kind of data set: Influenza Ann Arbor in mice, oral; schedule by table; late read day 5 (Tables 15, 25, 29, 30), 6 (18, 20, 22, 23, 26, 27, 28, 54), 7 (14, 19, 21, 24, 53, 56), 8 (16, 17, 51), 9 (11, 55). The format is in vivo, mouse. As to conditions: for Toxic: oral, mouse.

Regarding `CNNC` [1,2-dimethylhydrazine, dihydrochloride], the “No. animals surviving after 5-7 days” value is, setting by setting: (total dose 30 pg) 6; (total dose 300 pg) 2; (total dose 3 ng) 3; (total dose 30 ng) 3; (total dose 300 ng) 5; (total dose 3 μg) 3. Further, the “No. animals surviving after 5-7 days” value reads like this: (total dose 30 μg) 4; (total dose 300 μg) 6; (total dose 3 mg) 3. The Survivors worked out at 1 (total dose 30 pg); 0 (total dose 300 pg); 0 (total dose 3 ng); 1 (total dose 30 ng); 0 (total dose 300 ng); 0 (total dose 3 μg). Besides, the Survivors was 0 (total dose 30 μg), 0 (total dose 300 μg) and 0 (total dose 3 mg).
On to `C=CCNC(=S)NN=C1Cc2ccccc2C1` [2-Indanone, 4-allylthiosemicarbazone], for which the “No. animals surviving after 5-7 days” value runs as follows: (total dose 30 pg) 4; (total dose 300 pg) 7; (total dose 3 ng) 4; (total dose 30 ng) 6; (total dose 300 ng) 6; (total dose 3 μg) 2. Also, the “No. animals surviving after 5-7 days” value (total dose 30 μg) is recorded as 6, the “No. animals surviving after 5-7 days” value (total dose 300 μg) is 2 and the “No. animals surviving after 5-7 days” value (total dose 3 mg) is recorded as 4. Further, the Survivors is on record as 0 (total dose 30 pg); 0 (total dose 300 pg); 0 (total dose 3 ng); 0 (total dose 30 ng); 0 (total dose 300 ng); 0 (total dose 3 μg). Moreover, the Survivors runs as follows: (total dose 30 μg) 0; (total dose 300 μg) 0; (total dose 3 mg) 1.
On to `NC(N)=S` [Thiourea], for which the “No. animals surviving after 5-7 days” value (total dose 30 pg) stood at 2; the “No. animals surviving after 5-7 days” value (total dose 300 pg) amounted to 4; the “No. animals surviving after 5-7 days” value (total dose 3 ng) was 3; the “No. animals surviving after 5-7 days” value (total dose 30 ng) was 4; the “No. animals surviving after 5-7 days” value (total dose 300 ng) is reported as 2; the “No. animals surviving after 5-7 days” value (total dose 3 μg) worked out at 7. The “No. animals surviving after 5-7 days” value reads like this: (total dose 30 μg) 3; (total dose 300 μg) 6; (total dose 3 mg) 5. Moreover, the Survivors is, setting by setting: (total dose 30 pg) 0; (total dose 300 pg) 0; (total dose 3 ng) 1; (total dose 30 ng) 0; (total dose 300 ng) 0; (total dose 3 μg) 0. The same compound gave a Survivors (total dose 30 μg) of 0, a Survivors (total dose 300 μg) of 1 and a Survivors (total dose 3 mg) of 0.
For `NC(N)=NN=Cc1c(Cl)cccc1Cl` [[(2,6-dichlorobenzylidine)amino]guanidine acetate], the “No. animals surviving after 5-7 days” value is recorded as 4 (total dose 30 pg); 2 (total dose 300 pg); 4 (total dose 3 ng); 1 (total dose 30 ng); 1 (total dose 300 ng); 2 (total dose 3 μg). For the same compound, the “No. animals surviving after 5-7 days” value (total dose 30 μg) is on record as 3 and the “No. animals surviving after 5-7 days” value (total dose 300 μg) amounted to 1. Besides, the Survivors by setting is: (total dose 30 pg) 0; (total dose 300 pg) 1; (total dose 3 ng) 0; (total dose 30 ng) 0; (total dose 300 ng) 0; (total dose 3 μg) 0. Further, the Survivors worked out at 0 (total dose 30 μg) and 0 (total dose 300 μg). Besides, for the setting “total dose 3 mg”, the Toxic entry is listed as “Toxic”.
For `Cc1ccccc1NC(=S)NN=C1CCCC1` [cyclopentanone, 3-thio-4-o-tolyl-semicarbazone], the “No. animals surviving after 5-7 days” value (total dose 30 pg) turned out to be 6; the “No. animals surviving after 5-7 days” value (total dose 300 pg) turned out to be 9; the “No. animals surviving after 5-7 days” value (total dose 3 ng) was found to be 9; the “No. animals surviving after 5-7 days” value (total dose 30 ng) came to 9; the “No. animals surviving after 5-7 days” value (total dose 300 ng) worked out at 6; the “No. animals surviving after 5-7 days” value (total dose 3 μg) is listed as 6. Also, the “No. animals surviving after 5-7 days” value is, setting by setting: (total dose 300 μg) 9; (total dose 3 mg) 8. The compound also had a Survivors (total dose 30 pg) of 0; a Survivors (total dose 300 pg) of 0; a Survivors (total dose 3 ng) of 0; a Survivors (total dose 300 ng) of 0; a Survivors (total dose 3 μg) of 0; a Survivors (total dose 30 μg) of 0. Further, the Survivors by setting is: (total dose 300 μg) 0; (total dose 3 mg) 0.
Consider `CCC(C)=NNC(=N)N.O=[N+]([O-])O` [1-(sec-butylideneamino)guanidine nitrate, 1-(sec-butylideneamino)guanidine, nitrate], for which the “No. animals surviving after 5-7 days” value came to 0 (total dose 3 ng); 1 (total dose 30 ng); 3 (total dose 300 ng); 0 (total dose 3 μg); 2 (total dose 30 μg); 0 (total dose 300 μg). For the same compound, the Survivors is on record as 0 (total dose 3 ng); 0 (total dose 30 ng); 2 (total dose 300 ng); 0 (total dose 3 μg); 2 (total dose 30 μg); 0 (total dose 300 μg).
`CC(C)=NNC(N)=S` [acetone, thiosemicarbazone]: the “No. animals surviving after 5-7 days” value is 3 (total dose 30 pg); 2 (total dose 300 pg); 2 (total dose 3 ng); 2 (total dose 30 ng); 3 (total dose 300 ng); 5 (total dose 3 μg). The “No. animals surviving after 5-7 days” value is on record as 2 (total dose 30 μg) and 3 (total dose 300 μg). The Survivors is on record as 1 (total dose 30 pg); 0 (total dose 300 pg); 0 (total dose 3 ng); 0 (total dose 30 ng); 0 (total dose 300 ng); 0 (total dose 3 μg). Besides, the Survivors reads like this: (total dose 30 μg) 0; (total dose 300 μg) 0.
Consider `CCOC(=O)CC(C)=NNC(N)=S` [acetoacetic acid, ethyl ester, thiosemicarbazone], for which the “No. animals surviving after 5-7 days” value (total dose 30 pg) was found to be 8; the “No. animals surviving after 5-7 days” value (total dose 300 pg) is 4; the “No. animals surviving after 5-7 days” value (total dose 3 ng) was found to be 5; the “No. animals surviving after 5-7 days” value (total dose 30 ng) was 5; the “No. animals surviving after 5-7 days” value (total dose 300 ng) worked out at 4; the “No. animals surviving after 5-7 days” value (total dose 3 μg) came out at 6. Also, the “No. animals surviving after 5-7 days” value is, setting by setting: (total dose 30 μg) 8; (total dose 300 μg) 7; (total dose 3 mg) 5. Moreover, the Survivors by setting is: (total dose 30 pg) 0; (total dose 300 pg) 0; (total dose 3 ng) 0; (total dose 30 ng) 0; (total dose 300 ng) 0; (total dose 3 μg) 0. The compound also gave a Survivors (total dose 30 μg) of 0, a Survivors (total dose 300 μg) of 0 and a Survivors (total dose 3 mg) of 0.
Take `NC(=S)NN=C1Cc2ccccc2C1` [2-indanone, thiosemicarbazone]: the “No. animals surviving after 5-7 days” value was found to be 8 (total dose 30 pg); 8 (total dose 300 pg); 5 (total dose 3 ng); 9 (total dose 30 ng); 8 (total dose 300 ng); 8 (total dose 3 μg). Further, the “No. animals surviving after 5-7 days” value (total dose 30 μg) turned out to be 8 and the “No. animals surviving after 5-7 days” value (total dose 300 μg) was 6. The Survivors was 1 (total dose 30 pg); 0 (total dose 300 pg); 0 (total dose 3 ng); 0 (total dose 30 ng); 1 (total dose 300 ng); 1 (total dose 3 μg). The Survivors by setting is: (total dose 30 μg) 0; (total dose 300 μg) 0. The Toxic entry (total dose 3 mg) was “Toxic”.
On to `CN(C)N` [1,1-dimethylhydrazine], for which the “No. animals surviving after 5-7 days” value by setting is: (total dose 30 pg) 5; (total dose 300 pg) 3; (total dose 3 ng) 3; (total dose 30 ng) 2; (total dose 300 ng) 3; (total dose 3 μg) 2. The “No. animals surviving after 5-7 days” value (total dose 30 μg) stood at 1, the “No. animals surviving after 5-7 days” value (total dose 300 μg) is on record as 3 and the “No. animals surviving after 5-7 days” value (total dose 3 mg) is 2. Besides, the Survivors (total dose 30 pg) amounted to 0; the Survivors (total dose 300 pg) was found to be 0; the Survivors (total dose 3 ng) amounted to 1; the Survivors (total dose 30 ng) worked out at 0; the Survivors (total dose 300 ng) is on record as 0; the Survivors (total dose 3 μg) amounted to 0. The Survivors reads like this: (total dose 30 μg) 1; (total dose 300 μg) 0; (total dose 3 mg) 0.
As for `CNN` [Methylhydrazine, methylhydrazine], the “No. animals surviving after 5-7 days” value runs as follows: (total dose 30 pg) 2; (total dose 300 pg) 3; (total dose 3 ng) 3; (total dose 30 ng) 4; (total dose 300 ng) 1; (total dose 3 μg) 3. The “No. animals surviving after 5-7 days” value is 3 (total dose 30 μg) and 1 (total dose 300 μg). In addition, the Survivors turned out to be 1 (total dose 30 pg); 0 (total dose 300 pg); 1 (total dose 3 ng); 1 (total dose 30 ng); 0 (total dose 300 ng); 0 (total dose 3 μg). Further, the Survivors is, setting by setting: (total dose 30 μg) 1; (total dose 300 μg) 0. Moreover, the Toxic result (total dose 3 mg) is reported as “Toxic”.
